{
  "source": "patent US12544375B2",
  "about": "“Small molecule therapeutic for parkinson's disease paired with a biomarker of therapeutic activity” (The Board of Trustees of the Leland Stanford Junior …, priority 2019, dated 2026)",
  "biological_target": "T1, Myc-Miro1-7A (Homo sapiens, UniProt Q8IXI2, D530A/K427A/K454A/K528A/N428A/Q446A/S432A)",
  "T1 construct": "expressed in transfected cells; host or cells: human skin fibroblasts Healthy-1 and PD-2 (Lipofectamine 2000)",
  "T1 sequence (Q8IXI2 whole entry K427A/N428A/S432A/Q446A/K454A/K528A/D530A)": "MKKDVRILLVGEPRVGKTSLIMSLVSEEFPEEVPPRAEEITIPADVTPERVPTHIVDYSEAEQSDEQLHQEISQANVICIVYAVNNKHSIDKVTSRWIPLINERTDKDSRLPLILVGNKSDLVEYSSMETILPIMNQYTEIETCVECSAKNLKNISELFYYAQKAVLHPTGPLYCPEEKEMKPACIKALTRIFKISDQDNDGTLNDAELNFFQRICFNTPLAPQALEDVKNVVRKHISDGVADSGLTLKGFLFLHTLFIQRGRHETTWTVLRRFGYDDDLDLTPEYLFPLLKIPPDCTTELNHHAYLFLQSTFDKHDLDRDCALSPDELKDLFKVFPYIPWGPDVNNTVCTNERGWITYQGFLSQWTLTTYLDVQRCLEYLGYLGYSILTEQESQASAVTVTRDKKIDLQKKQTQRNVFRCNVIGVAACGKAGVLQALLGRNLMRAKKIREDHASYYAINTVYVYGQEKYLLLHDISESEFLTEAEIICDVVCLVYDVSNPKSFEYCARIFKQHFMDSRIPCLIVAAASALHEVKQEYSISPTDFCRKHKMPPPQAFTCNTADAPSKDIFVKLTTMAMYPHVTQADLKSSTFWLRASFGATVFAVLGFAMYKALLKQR",
  "experiment": "Drug-resistant mutant Myc-Miro1-7A expressed in fibroblasts, immunostaining",
  "assay_type": "cell-based",
  "details": "expressed in PD-2 fibroblasts, CCCP treatment",
  "experimental": "FIG. 2A-FIG. 2F. Miro1 Reducer Eliminates the Miro1 Defect in PD Fibroblasts. (FIG. 2A) Chemical properties of Miro1 Reducer. (FIG. 2B) Wild-type flies (w^1118) were fed with DMSO alone (0 μM Miro1 Reducer) or Miro1 Reducer in DMSO at 250 μM for 7 days, and lysed and blotted as indicated. The band intensities are normalized to those of Tubulin from the same blots. n=4. (FIG. 2C-FIG. 2E) Fibroblasts were treated, lysed, and blotted as indicated. (FIG. 2C) Band intensities are normalized to those of GAPDH from the same blots and compared to “Healthy-1, no treatment” except otherwise indicated. n=4. (FIG. 2D) Band intensities are normalized to those of ATP5β from the same blots and expressed as a percentage of the mean of “0 μM Miro1 Reducer with CCCP”. Mean±S.E.M is shown. n=3. (FIG. 2E) Band intensities are normalized to those of GAPDH from the same blots and compared to “Healthy-1, no CCCP, no MG132” except otherwise indicated. n=4. (FIG. 2F) Healthy-1 and PD-2 fibroblasts were transfected as indicated, and immunostained with anti-Myc (Miro1, green) and stained with Dapi (blue). The Miro1 intensity is normalized to that of mito-dsRed from the same cell and quantified across 37-62 cells from 5 fields each transfection, 3 independent transfections. Scale bars: 50 μm. For (FIG. 2C-FIG. 2F), both CCCP and Miro1 Reducer were dissolved in DMSO. […]",
  "data": [
    {"compound": "O=C(Nc1ccc(Nc2cc(-n3ccnc3)ncn2)cc1)Nc1cccc(F)c1", "note": "[Miro1 Reducer]", "values": [
      {"measurement": "response of mutant Myc-Miro1-7A to compound", "result": "failed to respond"}
    ]}
  ]
}
